{
  "source": "patent US11986489B2",
  "about": "“Method of treating a disease using a glycolytic dependent compound” (Ethicon, Inc., priority 2015, dated 2024)",
  "key": {"[1]": {"settings": "human, in vivo", "text": "Clinically, a half-life of a given compound is the amount of time required for the compound to fall e.g. in the circulation to half its initial administered dose i.e. how long it takes for the body to remove half of the administered dose. Typically, compounds are active for a multiple of their half-life, for example, five times the half-life can be used to describe the time period for a therapy's treatment. In the case of many therapies, this translates into days where the drug is having an effect on targeted tissues. All clinically used and approved drugs will have well described time ranges and amounts for calculating dose and therapy plans. In one embodiment, the performance of the compound in addressing the underlying pathology e.g. malignancy is adjusted in view of the presence of ORC, and/or OC that can localize the therapy at the target site during the limited time the compound is in the body and before it is being processed.\nIn certain embodiments a “therapeutically effective dose” refers to the median effective dose ED50, for a particular know drug. […] Mean: 1-3 hours. Typically, 5 times the elimination half-life will give the time at which point the drug has been completely eliminated from the body. For Doxorubicin this would be 5-15 hours."}, "[2]": {"tested_on": "Normal Human Dermal Fibroblast (NHDF) cells", "assay": "WST-1 viability of NHDF cells treated with Dox with or without ORC", "format": "cell-based", "settings": "for Potency increase of Dox in the presence of ORC: with ORC divided by without ORC", "description": "(§1) NU-KNIT® (ORC) patch: NU-KNIT® was cut with an 8 mm punch to form 8 mm circles of Nuknit. These circles were then cut into 4 quarters using sterile scissors (each quarter has a weight of 2.2-2.7 mg, Average 2.44 mg, n=10).\n(§2) Day 1: Two 24-well plates were seeded with 15,000 NHDF cells/well using a 15,000 cells/ml suspension according to the plate layout below (representing about 20%-30% confluency of cells).\n(§3) The plates were incubated overnight, for 16-18 hours, in a water jacketed 37° C. incubator with 5% CO2.\n(§4) The cells at this stage were about 40%-50% confluent.\n(§5) Immediately, a NuKnit® ¼ punch was added to the wells according to the plate layout.\n(§6) Day 3: The untreated cells at this stage were about 60%-70% confluent. The plate's medium was decanted and replaced with 0.5 ml of Growth medium. 50 μl of WST-1 were added to each well. The plates were then incubated for an additional 4 hours.\n(§7) The plates were then read with an ELISA reader at 450 nm and 650 nm Optical Density (OD). Wells containing medium with no cells were used as blank.\n(§8) The results obtained by ELISA reader at 650 nm were subtracted from the results obtained at 450 nm per each well separately=sample OD.\n(§9) The relative viability of the rest of the wells was calculated according to the following calculation: sample OD/untreated OD×100. The results were depicted in FIG. 2.\n(§10) The following experiment was set in order to evaluate the effect of ORC on Doxorubicin activity on Normal Human Dermal Fibroblast (NHDF) cells. Doxorubicin activity will be expressed in relative cell viability compared to untreated cells. […] The final viability of the cells was evaluated with WST-1 staining. WST-1 is a Tetrazolium salts that is only cleaved to Formazan in metabolically active intact cells."}, "[3]": {"assay": "WST-1 viability of NHDF cells treated with Dox with or without ORC", "format": "cell-based, Human", "settings": "human, NHDF cells (normal human dermal fibroblasts), NHDF cells, 16-18 hours, WST-1; for cytotoxicity at 5 μM: Dox 5 μM; for cytotoxicity at 25 μM: Dox 25 μM; for cytotoxicity at 50 μM: Dox 50 μM", "description": "as §1, §2, §3, §4, §5, §6, §7, §8, §9, §10"}, "[4]": {"settings": "in vivo; cited from earlier work"}, "[5]": {"settings": "with ORC (¼ Nuknit of 8 mm), read-out: With ORC relative reduction of viability (%)"}, "[6]": {"settings": "without ORC, read-out: Without ORC relative reduction of viability (%)"}},
  "note": "Counter-ions that a name gives are not always drawn. Like-named read-outs stand apart in the source and are kept apart here.",
  "data": [
    {"compound": "COc1cccc2c1C(=O)c1c(O)c3c(c(O)c1C2=O)C[C@@](O)(C(=O)CO)C[C@@H]3O[C@H]1C[C@H](N)[C@H](O)[C@H](C)O1", "note": "[Dox, Doxorubicin hydrochloride]", "values": [
      {"measurement": "time at which the drug has been completely eliminated from the body", "setting": "[1]", "result": "5 to 15", "unit": "h"},
      {"measurement": "Potency increase of Dox in the presence of ORC", "setting": "[2]; Dox 5 μM", "result": 1.89},
      {"measurement": "Potency increase of Dox in the presence of ORC", "setting": "[2]; Dox 25 μM", "result": 1.83},
      {"measurement": "Potency increase of Dox in the presence of ORC", "setting": "[2]; Dox 50 μM", "result": 1.24},
      {"measurement": "Dox concentration at which the viability reduction is already evident", "setting": "[2]; NHDF cells, in the absence of ORC", "result": 5.0, "unit": "µM"},
      {"measurement": "Effect of Dox on the viability of NHDF cells", "setting": "[2]; in the absence of ORC", "result": "reduces the viability of NHDF cells, in the absence of ORC in a dose dependent manner"},
      {"measurement": "cytotoxicity at 5 μM", "setting": "[3]; [5]", "result": "~55", "unit": "%"},
      {"measurement": "cytotoxicity at 5 μM", "setting": "[3]; [6]", "result": "~30", "unit": "%"},
      {"measurement": "cytotoxicity at 25 μM", "setting": "[3]; [5]", "result": "~74", "unit": "%"},
      {"measurement": "cytotoxicity at 25 μM", "setting": "[3]; [6]", "result": "~40", "unit": "%"},
      {"measurement": "cytotoxicity at 50 μM", "setting": "[3]; [5]", "result": 80, "unit": "%"},
      {"measurement": "cytotoxicity at 50 μM", "setting": "[3]; [6]", "result": 65, "unit": "%"},
      {"measurement": "biological half-life, mean", "setting": "[4]", "result": "1-3 hours"},
      {"measurement": "biological half-life, triphasic, third phase", "setting": "[4]", "result": 30, "unit": "hours"}
    ]},
    {"compound": "CO[C@H]1C[C@@H]2CC[C@@H](C)[C@@](O)(O2)C(=O)C(=O)N2CCCC[C@H]2C(=O)O[C@H]([C@H](C)C[C@@H]2CC[C@@H](OCCO)[C@H](OC)C2)CC(=O)[C@H](C)/C=C(\\C)[C@@H](O)[C@@H](OC)C(=O)[C@H](C)C[C@H](C)/C=C/C=C/C=C/1C", "note": "[Everolimus]", "values": [
      {"measurement": "half-life", "setting": "[4]", "result": "about 30 hours"}
    ]},
    {"compound": "Cc1ccc(Nc2nccc(N(C)c3ccc4c(C)n(C)nc4c3)n2)cc1S(N)(=O)=O", "note": "[Pazopanib]", "values": [
      {"measurement": "half-life", "setting": "[4]", "result": "about 31 hours"}
    ]},
    {"compound": "CNC(=O)c1cc(Oc2ccc(NC(=O)Nc3ccc(Cl)c(C(F)(F)F)c3)cc2)ccn1", "note": "[Sorafenib]", "values": [
      {"measurement": "half-life", "setting": "[4]", "result": "20 to 27", "unit": "h"}
    ]},
    {"compound": "CCN(CC)CCNC(=O)c1c(C)[nH]c(/C=C2\\C(=O)Nc3ccc(F)cc32)c1C", "note": "[Sunitinib]", "values": [
      {"measurement": "half-life", "setting": "[4]", "result": "41 to 86", "unit": "h"}
    ]},
    {"compound": "CO[C@H]1C[C@@H]2CC[C@@H](C)[C@@](O)(O2)C(=O)C(=O)N2CCCC[C@H]2C(=O)O[C@H]([C@H](C)C[C@@H]2CC[C@@H](OC(=O)C(C)(CO)CO)[C@H](OC)C2)CC(=O)[C@H](C)/C=C(\\C)[C@@H](O)[C@@H](OC)C(=O)[C@H](C)C[C@H](C)/C=C/C=C/C=C/1C", "note": "[Temsirolimus]", "values": [
      {"measurement": "half-life", "setting": "[4]", "result": "about 17.3 hours"}
    ]}
  ]
}
